This passage reports IC50 results from patent US9340577B2, “HLA binding motifs and peptides and their uses” (priority 1992, dated 2016).

Holding throughout (assay): biochemical
The target of one assay is DR1 (DRB1*0101) (Homo sapiens, UniProt P01903+P01911, A100R/D57E/F55L/F60I/F76Y/I96L/L162R/M171V/P40L/Q125E/R42F/V115G/Y59C). The format is binding.
The target of another assay is DR4w4 (DRB1*0401) (Homo sapiens, UniProt P01903+P01911, A100K/A169T/F76Y/I96L/K127E/L162R/M171V/N62H/P40V/Q125Y/R42H/S133A/S149N/S66Y/V115G/V209L/W38E). Format: binding.
The target in a further assay is DR7 (DRB1*0701) (Homo sapiens, UniProt P01903+P01911, A100R/A102G/A103Q/D57E/D86V/E43K/F76Y/K127E/L162R/M171V/P40G/Q125H/Q99D/R33Q/R42Y/R54Q/S133A/S66F/T210M/V115G/Y107V/Y59L/Y89S). Format: binding.
In the next assay the target is DRB1*0405 (Homo sapiens, UniProt P01903+P01911, A100R/A169T/D86S/F76Y/I96L/K127E/L162R/M171V/N62H/P40V/Q125Y/R42H/S133A/S149N/S66Y/V115G/V209L/W38E). Format: binding.
A further assay has as its target DRB1*0802 (Homo sapiens, UniProt P01903+P01911, A100R/A103L/A169T/F76Y/H45Y/I96F/K41T/L162R/M171V/P40S/Q125H/Q178H/Q39Y/Q99D/R218S/R42G/S66Y/V115G/W38E). Format: binding.
Another assay has as its target DRB1*0901 (Homo sapiens, UniProt P01903+P01911, A100R/A103E/D57H/D86V/F55Y/F60I/F76Y/I96F/K127E/L162R/M171V/P40D/Q125H/Q99R/R33Q/R42F/S133A/S66N/T210M/V115G/W38K/Y107V/Y59G/Y89S). Format: binding.
A further assay concerns the target DRB1*1302 (Homo sapiens, UniProt P01903+P01911, A100E/A169T/K41T/L162R/M171V/P40S/Q125H/Q178H/Q39Y/Q99D/R42S/S66N/T262R/V115G/W38E/Y61H). The format is binding.
For another assay, the target named is DRB1*1501 (Homo sapiens, UniProt P01903+P01911). Format: binding.
In another assay the target is DRB4*0101 (Homo sapiens, UniProt P01903+P13762, G164S). Format: binding.
The target in the next assay is DRB1*1101 (Homo sapiens, UniProt P01903+P01911, A100R/A169T/A87E/I96F/K41T/L162R/M171V/P40S/Q125H/Q178H/Q39Y/Q99D/R42S/S66Y/T262R/V115G/W38E).
Sequence of DRB1*1101 (P01903 26-254 limits assumed, other chains not shown): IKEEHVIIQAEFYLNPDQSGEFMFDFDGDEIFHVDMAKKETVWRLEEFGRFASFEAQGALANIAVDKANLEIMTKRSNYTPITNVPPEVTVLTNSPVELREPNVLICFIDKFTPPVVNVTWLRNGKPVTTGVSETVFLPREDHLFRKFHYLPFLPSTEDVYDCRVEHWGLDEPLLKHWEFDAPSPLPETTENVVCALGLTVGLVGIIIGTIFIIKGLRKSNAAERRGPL
In another assay the target is DRB5*0101 (Homo sapiens, UniProt P01903+Q30154).

Like-named read-outs stand apart in the source and are kept apart here. No end group written: not given here. A value given as a limit tells only on which side of the number the result lay.

Sequence of DRB1*1302 (P01903 26-254 limits assumed, other chains not shown): as above

With LIKFFQGSVISFVNS [Peptide 89.0135], the IC50 – broadly, the concentration that gives 50% inhibition – against DR1 (DRB1*0101) is more than 20 µM; at DR4w4 (DRB1*0401), more than 20 µM; at DR7 (DRB1*0701), more than 20 µM; on DRB1*0405, more than 20 µM; against DRB1*0802 it was 7.98 µM; against DRB1*0901 it was more than 20 µM. Further, the IC50 at DRB1*1302 was 0.071 µM; at DRB1*1501, more than 20 µM; against DRB4*0101, 3.73 µM; against DRB1*1101, more than 20 µM; against DRB5*0101, more than 20 µM.
For the sequence ALSVSKAKALQAIEL [Peptide 89.0170], the IC50 against DR1 (DRB1*0101) was 0.084 µM; against DR4w4 (DRB1*0401) it was 0.281 µM; against DR7 (DRB1*0701), 3.21 µM; against DRB1*0405, 8.43 µM; against DRB1*0802, more than 20 µM; against DRB1*0901, 4.33 µM. Besides, the IC50 was 1.63 µM at DRB1*1302; more than 20 µM against DRB1*1501; more than 20 µM at DRB4*0101; more than 20 µM on DRB1*1101 (Binding affinity DRB1 *1101); more than 20 µM at DRB5*0101 (Binding affinity DRB5 *0101).
With LKRFLQGIPKKNCIL [Peptide 89.0016], the IC50 on DR1 (DRB1*0101) was 0.069 µM; at DR4w4 (DRB1*0401), 0.944 µM; on DR7 (DRB1*0701) it was more than 20 µM; against DRB1*0405, more than 20 µM; at DRB1*0802 it was 3.29 µM; at DRB1*0901 it was 7.67 µM. In addition, the IC50 on DRB1*1302 is more than 20 µM; at DRB1*1501, 3.62 µM; at DRB4*0101 it was 1.7 µM; on DRB1*1101 (Binding affinity DRB1 *1101) it was 2.54 µM; on DRB5*0101 (Binding affinity DRB5 *0101) it was 0.0055 µM.
For the sequence SQLLNIPETHMVIEP [Peptide 89.0102], the IC50 at DR1 (DRB1*0101), on DR4w4 (DRB1*0401), at DR7 (DRB1*0701), against DRB1*0405, against DRB1*0802 and at DRB1*0901 was more than 20 µM in each case. Also, the IC50 was more than 20 µM against DRB1*1302; more than 20 µM against DRB1*1501; 0.807 µM on DRB4*0101; more than 20 µM on DRB1*1101 (Binding affinity DRB1 *1101); more than 20 µM at DRB5*0101 (Binding affinity DRB5 *0101).
As to RNLVDGNPISLDRKH [Peptide 89.0137], the IC50 on DR1 (DRB1*0101) was 11.2 µM; at DR4w4 (DRB1*0401) it was 1.04 µM; against DR7 (DRB1*0701), 7.38 µM; at DRB1*0405, more than 20 µM; against DRB1*0802, more than 20 µM; on DRB1*0901, more than 20 µM. Further, the IC50 was more than 20 µM against DRB1*1302; more than 20 µM on DRB1*1501; 0.992 µM on DRB4*0101; more than 20 µM at DRB1*1101; more than 20 µM on DRB5*0101.
Take EVHVGGQVIVCPTSI [Peptide 89.0184]: the IC50 was more than 20 µM against DR1 (DRB1*0101); more than 20 µM against DR4w4 (DRB1*0401); more than 20 µM at DR7 (DRB1*0701); 0.557 µM at DRB1*0405; more than 20 µM against DRB1*0802; more than 20 µM at DRB1*0901. Moreover, the IC50 at DRB1*1302, at DRB1*1501, on DRB4*0101, at DRB1*1101 (Binding affinity DRB1 *1101) and at DRB5*0101 (Binding affinity DRB5 *0101) was more than 20 µM throughout.
As to LSQVKIPKTITVSTG [Peptide 89.0158], the IC50 was 4.5 µM against DR1 (DRB1*0101); 0.373 µM against DR4w4 (DRB1*0401); 5.83 µM at DR7 (DRB1*0701); more than 20 µM at DRB1*0405; more than 20 µM on DRB1*0802; 5.48 µM at DRB1*0901. Moreover, the IC50 was more than 20 µM at DRB1*1302; 1.91 µM against DRB1*1501; more than 20 µM against DRB4*0101; 3.63 µM on DRB1*1101 (Binding affinity DRB1 *1101); more than 20 µM on DRB5*0101 (Binding affinity DRB5 *0101).
As for NHQVVPALSVSKAKA [Peptide 89.0168], the IC50 at DR1 (DRB1*0101) is more than 20 µM; at DR4w4 (DRB1*0401), 0.959 µM; against DR7 (DRB1*0701) it was more than 20 µM; at DRB1*0405, more than 20 µM; at DRB1*0802 it was more than 20 µM; against DRB1*0901, more than 20 µM. The IC50 was 0.9 µM against DRB1*1302; 7.34 µM against DRB1*1501; more than 20 µM against DRB4*0101; more than 20 µM on DRB1*1101 (Binding affinity DRB1 *1101); more than 20 µM on DRB5*0101 (Binding affinity DRB5 *0101).
Consider IHFLKGCIISYVNSK [Peptide 89.0147], for which the IC50 on DR1 (DRB1*0101) was more than 20 µM; on DR4w4 (DRB1*0401) it was 3.84 µM; on DR7 (DRB1*0701), 6.49 µM; against DRB1*0405, more than 20 µM; against DRB1*0802, more than 20 µM; on DRB1*0901, more than 20 µM. Also, the IC50 against DRB1*1302 was more than 20 µM; against DRB1*1501 it was more than 20 µM; against DRB4*0101, 1.36 µM; on DRB1*1101 (Binding affinity DRB1 *1101) it was more than 20 µM; on DRB5*0101 (Binding affinity DRB5 *0101), more than 20 µM.
With GKSYFGMSLISFLQG [Peptide 89.0056], the IC50 against DR1 (DRB1*0101) was found to be 0.17 µM; against DR4w4 (DRB1*0401), 1.09 µM; on DR7 (DRB1*0701), 0.284 µM; at DRB1*0405 it was 1.23 µM; against DRB1*0802 it was 6.02 µM; against DRB1*0901 it was 0.512 µM. Besides, the IC50 was 1.34 µM against DRB1*1302; 4.79 µM against DRB1*1501; 1.96 µM against DRB4*0101; 0.9 µM on DRB1*1101 (Binding affinity DRB1 *1101); more than 20 µM on DRB5*0101 (Binding affinity DRB5 *0101).
Take DSEIAYKYAQLADTN [Peptide 89.0012]: the IC50 is 0.734 µM against DR1 (DRB1*0101); 1.95 µM on DR4w4 (DRB1*0401); more than 20 µM against DR7 (DRB1*0701); 11 µM at DRB1*0405; 1.12 µM on DRB1*0802; 1.93 µM against DRB1*0901. In addition, the IC50 is more than 20 µM against DRB1*1302; 3.44 µM at DRB1*1501; 0.275 µM against DRB4*0101; 3.54 µM on DRB1*1101 (Binding affinity DRB1 *1101); 19.6 µM on DRB5*0101 (Binding affinity DRB5 *0101).
With RQHLANHPAATHTKA [Peptide 89.0155], the IC50 at DR1 (DRB1*0101), on DR4w4 (DRB1*0401), against DR7 (DRB1*0701), on DRB1*0405, on DRB1*0802 and at DRB1*0901 was more than 20 µM each time. Moreover, the half-inhibitory concentration (IC50) was 0.878 µM on DRB1*1302; 8.66 µM on DRB1*1501; more than 20 µM at DRB4*0101; 16 µM on DRB1*1101 (Binding affinity DRB1 *1101); more than 20 µM on DRB5*0101 (Binding affinity DRB5 *0101).
As to CSAIEVQIALESLST [Peptide 90.0018], the IC50 was 0.24 µM against DR4w4 (DRB1*0401); 5.26 µM on DR7 (DRB1*0701); 3.32 µM at DRB1*0405; more than 20 µM against DRB1*0802; 12 µM at DRB1*0901; 0.617 µM at DRB1*1302. Besides, the IC50 against DRB1*1501 was more than 20 µM; at DRB4*0101, 0.029 µM; at DRB1*1101 (Binding affinity DRB1 *1101) it was more than 20 µM; on DRB5*0101 (Binding affinity DRB5 *0101), more than 20 µM.
For the sequence QKCFKKKGITVTVQY [Peptide 90.0026], the IC50 against DR4w4 (DRB1*0401) was 0.996 µM; on DR7 (DRB1*0701), 4.39 µM; against DRB1*0405 it was 2.91 µM; at DRB1*0802 it was 1.33 µM; at DRB1*0901, 0.639 µM; against DRB1*1302, 0.837 µM. In addition, the IC50 is more than 20 µM against DRB1*1501, 1.31 µM against DRB4*0101, 7.82 µM at DRB1*1101 (Binding affinity DRB1 *1101) and more than 20 µM on DRB5*0101 (Binding affinity DRB5 *0101).
Regarding LKVLIKQHSIYTHLQ [Peptide 89.0142], the IC50 at DR4w4 (DRB1*0401) was more than 20 µM; at DR7 (DRB1*0701) it was more than 20 µM; against DRB1*0405, more than 20 µM; at DRB1*0802, more than 20 µM; against DRB1*0901, more than 20 µM; against DRB1*1302 it was 0.448 µM. Besides, the IC50 at DRB1*1501, at DRB4*0101, at DRB1*1101 (Binding affinity DRB1 *1101) and at DRB5*0101 (Binding affinity DRB5 *0101) was more than 20 µM throughout.
GQVIVCPTSISSNQI [Peptide 89.0185]: the IC50 on DR4w4 (DRB1*0401) was 0.091 µM; against DR7 (DRB1*0701), more than 20 µM; at DRB1*0405, 7.59 µM; against DRB1*0802 it was 1.63 µM; against DRB1*0901, more than 20 µM; on DRB1*1302, 1.33 µM. In addition, the 50% inhibitory concentration (IC50) at DRB1*1501 was found to be 3.76 µM; against DRB4*0101, 1.75 µM; on DRB1*1101 (Binding affinity DRB1 *1101) it was 6.53 µM; at DRB5*0101 (Binding affinity DRB5 *0101), 2.48 µM.
